# Source: the supplement of paper PMC10307832
# Columns and labels:
# Experiment in all cases: relative viability (nuclei count vs DMSO), 5 days (fraction); higher = more cells survive
# EBC-1 = system: EBC-1
# How it was run: (§1)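 Values are medians from duplicate plates. Each reflects relative viability, defined as the nuclei count of treated wells over that of vehicle wells. Lung cancer cell lines in 1536-well plates were pin-tool dosed one day after seeding with one drug alone or with a fixed anchor-drug dose plus five library-drug doses (not always all listed) in √10 steps, then fixed, stained and imaged at 4× after 5 days.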
# Calu-6 = system: Calu-6
# How it was run: as §1
# NCI-H1703 = system: NCI-H1703
# How it was run: as §1
# A549 = system: A549
# How it was run: as §1
# NCI-H1623 = system: NCI-H1623
# How it was run: as §1
# NCI-H1648 = system: NCI-H1648
# How it was run: as §1
SMILES,relative viability (EBC-1; first compound 0.08 µM),relative viability (EBC-1; first compound 0.8 µM),relative viability (EBC-1; first compound 2.53 µM),relative viability (EBC-1; first compound 8 µM),relative viability (Calu-6; first compound 0.08 µM),relative viability (Calu-6; first compound 0.8 µM),relative viability (Calu-6; first compound 2.53 µM),relative viability (Calu-6; first compound 8 µM),relative viability (NCI-H1703; first compound 0.08 µM),relative viability (NCI-H1703; first compound 0.8 µM),relative viability (NCI-H1703; first compound 2.53 µM),relative viability (NCI-H1703; first compound 8 µM),relative viability (A549; first compound 0.08 µM),relative viability (A549; first compound 0.8 µM),relative viability (A549; first compound 2.53 µM),relative viability (A549; first compound 8 µM),relative viability (NCI-H1623; first compound 0.08 µM),relative viability (NCI-H1623; first compound 0.8 µM),relative viability (NCI-H1623; first compound 2.53 µM),relative viability (NCI-H1623; first compound 8 µM),relative viability (NCI-H1648; first compound 0.08 µM),relative viability (NCI-H1648; first compound 0.8 µM),relative viability (NCI-H1648; first compound 2.53 µM),relative viability (NCI-H1648; first compound 8 µM)
CCCCCCCCCCCC1=C(O)C(=O)C=C(O)C1=O [Embelin] + CC1(C)CCC(c2ccc(Cl)cc2)=C(CN2CCN(c3ccc(C(=O)NS(=O)(=O)c4ccc(N[C@H](CCN5CCOCC5)CSc5ccccc5)c(S(=O)(=O)C(F)(F)F)c4)cc3)CC2)C1 [Navitoclax] (partner 0.5 µM),0.439,0.426,0.425,0.404,0.837,1.01,0.904,0.831,1.29,1.26,1.06,1.06,1.21,1.35,1.21,1.3,–,–,–,–,–,–,–,–
CCCCCCCCCCCC1=C(O)C(=O)C=C(O)C1=O [Embelin] + N=C(N)NC(=N)NCCc1ccccc1 [Phenformin] (partner 250 µM),–,–,–,–,–,–,–,–,–,–,–,–,0.204,0.167,0.185,0.0745,0.601,0.612,0.62,0.602,–,–,–,–
CCCCCCCCCCCC1=C(O)C(=O)C=C(O)C1=O [Embelin] + O=C(CCCCCCC(=O)Nc1ccccc1)NO [Vorinostat] (partner 1 µM),–,–,–,–,–,–,–,–,–,–,–,–,–,–,–,–,–,–,–,–,0.464,0.908,0.487,0.699
CCCCCCCCCCCC1=C(O)C(=O)C=C(O)C1=O [Embelin] + O=C(c1cc(Cc2n[nH]c(=O)c3ccccc23)ccc1F)N1CCN(C(=O)C2CC2)CC1 [Olaparib] (partner 8 µM),0.699,0.828,0.703,0.684,0.589,0.682,0.573,0.655,0.457,0.442,0.388,0.286,0.32,0.187,0.424,0.366,–,–,–,–,1,0.904,1.14,1.21
CCCCCCCCCCCC1=C(O)C(=O)C=C(O)C1=O [Embelin] + C[C@]1(O)C[C@@H](c2nc(-c3ccc4ccc(-c5ccccc5)nc4c3)c3c(N)nccn32)C1 [Linsitinib] (partner 1 µM),0.946,1.01,0.998,0.751,0.993,1.1,0.981,0.959,0.983,–,0.634,0.599,0.546,0.717,0.582,0.456,–,–,–,–,–,–,–,–
CCCCCCCCCCCC1=C(O)C(=O)C=C(O)C1=O [Embelin] + Cc1cc(Nc2cc(N3CCN(C)CC3)nc(Sc3ccc(NC(=O)C4CC4)cc3)n2)n[nH]1 [Tozasertib] (partner 0.1 µM),–,–,–,–,–,–,–,–,–,–,–,–,–,–,–,–,0.44,0.412,0.45,0.423,0.472,0.627,0.366,0.582
CCCCCCCCCCCC1=C(O)C(=O)C=C(O)C1=O [Embelin] + COc1cc2c(Oc3ccc(NC(=O)C4(C(=O)Nc5ccc(F)cc5)CC4)cc3F)ccnc2cc1OCCCN1CCOCC1 [Foretinib] (partner 0.25 µM),0.0948,0.124,0.102,0.103,0.86,1.01,0.883,1.03,0.413,0.404,0.392,0.314,0.906,1.05,1.09,1.04,0.889,0.872,0.876,0.853,–,–,–,–
CCCCCCCCCCCC1=C(O)C(=O)C=C(O)C1=O [Embelin] + CC(C)C[C@H](NC(=O)[C@H](Cc1ccccc1)NC(=O)c1cnccn1)B(O)O [Bortezomib] (partner 0.002 µM),0.485,0.678,0.565,0.545,1.1,1.03,0.966,1.15,0.26,0.549,0.361,0.236,–,–,–,–,–,–,–,–,–,–,–,–
CCCCCCCCCCCC1=C(O)C(=O)C=C(O)C1=O [Embelin] + CC(=O)Nc1cccc(-n2c(=O)n(C3CC3)c(=O)c3c(Nc4ccc(I)cc4F)n(C)c(=O)c(C)c32)c1 [Trametinib] (partner 0.02 µM),–,–,–,–,–,–,–,–,–,–,–,–,–,–,–,–,–,–,–,–,0.53,0.572,0.524,0.596
CCCCCCCCCCCC1=C(O)C(=O)C=C(O)C1=O [Embelin] + CS(=O)(=O)N1CCN(Cc2cc3nc(-c4cccc5[nH]ncc45)nc(N4CCOCC4)c3s2)CC1 [Pictilisib] (partner 1 µM),0.446,0.362,0.446,0.336,0.949,1.12,1.1,0.891,0.232,0.315,0.241,0.232,0.554,0.596,0.53,0.527,–,–,–,–,–,–,–,–
CCCCCCCCCCCC1=C(O)C(=O)C=C(O)C1=O [Embelin] + CS(=O)(=O)CCNCc1ccc(-c2ccc3ncnc(Nc4ccc(OCc5cccc(F)c5)c(Cl)c4)c3c2)o1 [Lapatinib] (partner 2 µM),0.202,0.247,0.218,0.217,1.03,1.11,1.08,1.14,1.2,1.6,1.02,1.23,0.923,1.12,1.12,1.1,–,–,–,–,–,–,–,–
CCCCCCCCCCCC1=C(O)C(=O)C=C(O)C1=O [Embelin] + Nc1ncn([C@H]2C[C@H](O)[C@@H](CO)O2)c(=O)n1 [Decitabine] (partner 2 µM),–,–,–,–,–,–,–,–,–,–,–,–,0.303,0.252,0.326,0.277,–,–,–,–,0.577,0.549,0.548,0.365
CCCCCCCCCCCC1=C(O)C(=O)C=C(O)C1=O [Embelin] + CCNC(=O)c1noc(-c2cc(C(C)C)c(O)cc2O)c1-c1ccc(CN2CCOCC2)cc1 [Luminespib] (partner 0.01 µM),–,–,–,–,–,–,–,–,–,–,–,–,–,–,–,–,0.577,0.478,0.484,0.452,–,–,–,–
CCCCCCCCCCCC1=C(O)C(=O)C=C(O)C1=O [Embelin] + C[C@@H](Oc1cc(-c2cnn(C3CCNCC3)c2)cnc1N)c1c(Cl)ccc(F)c1Cl [Crizotinib] (partner 1 µM),0.205,0.229,0.191,0.19,0.738,0.854,0.822,0.692,0.8,1.17,0.806,0.975,0.834,0.81,0.987,0.915,–,–,–,–,–,–,–,–
CCCCCCCCCCCC1=C(O)C(=O)C=C(O)C1=O [Embelin] + Cc1nc(Nc2ncc(C(=O)Nc3c(C)cccc3Cl)s2)cc(N2CCN(CCO)CC2)n1 [Dasatinib] (partner 0.075 µM),–,–,–,–,–,–,–,–,–,–,–,–,–,–,–,–,0.554,0.542,0.534,0.555,–,–,–,–
CCCCCCCCCCCC1=C(O)C(=O)C=C(O)C1=O [Embelin] + NC(=O)Nc1cc(-c2cccc(F)c2)sc1C(=O)N[C@H]1CCCNC1 [AZD7762] (partner 0.2 µM),–,–,–,–,–,–,–,–,0.132,0.166,0.131,0.143,–,–,–,–,–,–,–,–,0.598,0.689,0.628,0.709
CCCCCCCCCCCC1=C(O)C(=O)C=C(O)C1=O [Embelin] + CC(=O)c1c(C)c2cnc(Nc3ccc(N4CCNCC4)cn3)nc2n(C2CCCC2)c1=O [Palbociclib] (partner 0.5 µM),–,–,–,–,–,–,–,–,–,–,–,–,–,–,–,–,–,–,–,–,0.205,0.23,0.241,0.297
CCCCCCCCCCCC1=C(O)C(=O)C=C(O)C1=O [Embelin] + COc1cccc2cc(-c3nc([C@H]4CC[C@H](C(=O)O)CC4)n4ncnc(N)c34)[nH]c12 [OSI-027] (partner 0.5 µM),–,–,–,–,–,–,–,–,–,–,–,–,–,–,–,–,0.486,0.41,0.468,0.494,0.263,0.293,0.248,0.278
CCCCCCCCCCCC1=C(O)C(=O)C=C(O)C1=O [Embelin] + Cc1nc(NC(=O)N2CCC[C@H]2C(N)=O)sc1-c1ccnc(C(C)(C)C(F)(F)F)c1 [Alpelisib] (partner 2 µM),0.93,1,0.914,0.732,0.983,0.935,0.978,0.893,0.428,0.436,0.309,0.238,0.901,0.794,0.837,0.728,–,–,–,–,–,–,–,–
CCCCCCCCCCCC1=C(O)C(=O)C=C(O)C1=O [Embelin] + Nc1nc2[nH]cc(CCc3ccc(C(=O)N[C@@H](CCC(=O)O)C(=O)O)cc3)c2c(=O)[nH]1 [Pemetrexed] (partner 0.2 µM),–,–,–,–,–,–,–,–,–,–,–,–,–,–,–,–,–,–,–,–,0.682,0.675,0.776,0.662
